Source: the supplement of paper PMC10307832

Assays:
Assay in all cases: relative viability (nuclei count vs DMSO), 5 days (fraction); higher = more cells survive
[1] = compound: COC1=CC=C(C=C1)COC2=C(C=C(C=C2)CC3=CN=C(N=C3N)N)OC [GW-2580] + CCNC(=O)c1noc(-c2cc(C(C)C)c(O)cc2O)c1-c1ccc(CN2CCOCC2)cc1 [Luminespib] (partner 0.01 µM)
Procedure, shortened: (§1)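 Relative viability is defined as nuclei in treated wells over nuclei in vehicle wells. Duplicate plates were run and medians reported. Lung cancer cell lines in 1536-well plates were dosed by pin tool one day after seeding, with one drug or with a fixed anchor-drug dose plus five library-drug doses (not always all listed) in √10 steps, and nuclei were counted after 5 days.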

[2] = compound: COC1=CC=C(C=C1)COC2=C(C=C(C=C2)CC3=CN=C(N=C3N)N)OC [GW-2580] + CS(=O)(=O)CCNCc1ccc(-c2ccc3ncnc(Nc4ccc(OCc5cccc(F)c5)c(Cl)c4)c3c2)o1 [Lapatinib] (partner 2 µM)
Procedure, shortened: as §1

[3] = compound: Cc1cnc(Nc2ccc(OCCN3CCCC3)cc2)nc1Nc1cccc(S(=O)(=O)NC(C)(C)C)c1 [Fedratinib] + COc1cccc2cc(-c3nc([C@H]4CC[C@H](C(=O)O)CC4)n4ncnc(N)c34)[nH]c12 [OSI-027] (partner 0.5 µM)
Procedure, shortened: as §1

[4] = compound: Cc1cnc(Nc2ccc(OCCN3CCCC3)cc2)nc1Nc1cccc(S(=O)(=O)NC(C)(C)C)c1 [Fedratinib] + Cc1cc(Nc2cc(N3CCN(C)CC3)nc(Sc3ccc(NC(=O)C4CC4)cc3)n2)n[nH]1 [Tozasertib] (partner 0.1 µM)
Procedure, shortened: as §1

[5] = compound: Cc1cnc(Nc2ccc(OCCN3CCCC3)cc2)nc1Nc1cccc(S(=O)(=O)NC(C)(C)C)c1 [Fedratinib] + Cc1nc(NC(=O)N2CCC[C@H]2C(N)=O)sc1-c1ccnc(C(C)(C)C(F)(F)F)c1 [Alpelisib] (partner 2 µM)
Procedure, shortened: as §1

[6] = compound: Cc1cnc(Nc2ccc(OCCN3CCCC3)cc2)nc1Nc1cccc(S(=O)(=O)NC(C)(C)C)c1 [Fedratinib] + O=C(c1cc(Cc2n[nH]c(=O)c3ccccc23)ccc1F)N1CCN(C(=O)C2CC2)CC1 [Olaparib] (partner 8 µM)
Procedure, shortened: as §1

LK-2
relative viability ([1]; first compound 0.08 µM): 0.16
relative viability ([1]; first compound 0.8 µM): 0.173
relative viability ([1]; first compound 2.53 µM): 0.238
relative viability ([1]; first compound 8 µM): 0.175
relative viability ([2]; first compound 0.08 µM): 0.972
relative viability ([2]; first compound 0.8 µM): 0.952
relative viability ([2]; first compound 2.53 µM): 0.513
relative viability ([2]; first compound 8 µM): 0.735
relative viability ([3]; first compound 0.1 µM): 0.157
relative viability ([3]; first compound 0.3162 µM): 0.184
relative viability ([3]; first compound 1 µM): 0.16
relative viability ([4]; first compound 0.1 µM): 0.186
relative viability ([4]; first compound 0.3162 µM): 0.193
relative viability ([4]; first compound 1 µM): 0.161
relative viability ([5]; first compound 0.3162 µM): 0.936
relative viability ([5]; first compound 1 µM): 0.936
relative viability ([6]; first compound 0.1 µM): 0.611
relative viability ([6]; first compound 0.3162 µM): 0.624
relative viability ([6]; first compound 1 µM): 0.698

LOU-NH91
relative viability ([1]; first compound 0.08 µM): 0.413
relative viability ([1]; first compound 0.8 µM): 0.34
relative viability ([1]; first compound 2.53 µM): 0.319
relative viability ([1]; first compound 8 µM): 0.356
relative viability ([2]; first compound 0.08 µM): 0.748
relative viability ([2]; first compound 0.8 µM): 0.811
relative viability ([2]; first compound 2.53 µM): 0.649
relative viability ([2]; first compound 8 µM): 0.789
relative viability ([3]; first compound 0.1 µM): 0.669
relative viability ([3]; first compound 0.3162 µM): 0.72
relative viability ([3]; first compound 1 µM): 0.664
relative viability ([4]; first compound 0.1 µM): 0.388
relative viability ([4]; first compound 0.3162 µM): 0.73
relative viability ([4]; first compound 1 µM): 0.64
relative viability ([5]; first compound 0.1 µM): 0.615
relative viability ([5]; first compound 0.3162 µM): 0.785
relative viability ([5]; first compound 1 µM): 0.676
relative viability ([6]; first compound 0.1 µM): 0.847
relative viability ([6]; first compound 0.3162 µM): 0.941
relative viability ([6]; first compound 1 µM): 0.91

LU99A
relative viability ([1]; first compound 0.08 µM): 0.289
relative viability ([1]; first compound 0.8 µM): 0.241
relative viability ([1]; first compound 2.53 µM): 0.193
relative viability ([1]; first compound 8 µM): 0.273
relative viability ([2]; first compound 0.08 µM): 1.07
relative viability ([2]; first compound 0.8 µM): 1.14
relative viability ([2]; first compound 2.53 µM): 0.698
relative viability ([2]; first compound 8 µM): 1.01
relative viability ([3]; first compound 0.1 µM): 0.254
relative viability ([3]; first compound 0.3162 µM): 0.328
relative viability ([3]; first compound 1 µM): 0.272
relative viability ([4]; first compound 0.1 µM): 0.209
relative viability ([4]; first compound 0.3162 µM): 0.291
relative viability ([4]; first compound 1 µM): 0.276
relative viability ([5]; first compound 0.1 µM): 0.55
relative viability ([5]; first compound 0.3162 µM): 0.518
relative viability ([5]; first compound 1 µM): 0.387
relative viability ([6]; first compound 0.1 µM): 0.262
relative viability ([6]; first compound 0.3162 µM): 0.264
relative viability ([6]; first compound 1 µM): 0.231

LXF-289
relative viability ([1]; first compound 0.08 µM): 0.719
relative viability ([1]; first compound 0.8 µM): 0.732
relative viability ([1]; first compound 2.53 µM): 0.684
relative viability ([1]; first compound 8 µM): 0.616
relative viability ([2]; first compound 0.08 µM): 0.941
relative viability ([2]; first compound 0.8 µM): 0.946
relative viability ([2]; first compound 2.53 µM): 0.815
relative viability ([2]; first compound 8 µM): 0.829
relative viability ([3]; first compound 0.1 µM): 0.796
relative viability ([3]; first compound 0.3162 µM): 0.792
relative viability ([3]; first compound 1 µM): 0.791
relative viability ([4]; first compound 0.1 µM): 0.149
relative viability ([4]; first compound 0.3162 µM): 0.185
relative viability ([4]; first compound 1 µM): 0.151
relative viability ([5]; first compound 0.1 µM): 1.06
relative viability ([5]; first compound 0.3162 µM): 0.997
relative viability ([5]; first compound 1 µM): 1.05
relative viability ([6]; first compound 0.1 µM): 1.11
relative viability ([6]; first compound 0.3162 µM): 1.01
relative viability ([6]; first compound 1 µM): 0.994

NCI-H23
relative viability ([1]; first compound 0.08 µM): 0.226
relative viability ([1]; first compound 0.8 µM): 0.194
relative viability ([1]; first compound 2.53 µM): 0.213
relative viability ([1]; first compound 8 µM): 0.191
relative viability ([2]; first compound 0.08 µM): 1.03
relative viability ([2]; first compound 0.8 µM): 1.09
relative viability ([2]; first compound 2.53 µM): 0.936
relative viability ([2]; first compound 8 µM): 1.25
relative viability ([3]; first compound 0.1 µM): 0.579
relative viability ([3]; first compound 0.3162 µM): 0.654
relative viability ([3]; first compound 1 µM): 0.525
relative viability ([4]; first compound 0.1 µM): 0.528
relative viability ([4]; first compound 0.3162 µM): 0.364
relative viability ([4]; first compound 1 µM): 0.303
relative viability ([5]; first compound 0.1 µM): 0.585
relative viability ([5]; first compound 0.3162 µM): 0.743
relative viability ([5]; first compound 1 µM): 0.598
relative viability ([6]; first compound 0.1 µM): 0.286
relative viability ([6]; first compound 0.3162 µM): 0.3
relative viability ([6]; first compound 1 µM): 0.289

NCI-H322M
relative viability ([1]; first compound 0.08 µM): 0.868
relative viability ([1]; first compound 0.8 µM): 0.887
relative viability ([1]; first compound 2.53 µM): 0.805
relative viability ([1]; first compound 8 µM): 0.903
relative viability ([2]; first compound 0.08 µM): 0.547
relative viability ([2]; first compound 0.8 µM): 0.627
relative viability ([2]; first compound 2.53 µM): 0.592
relative viability ([2]; first compound 8 µM): 0.573
relative viability ([3]; first compound 0.1 µM): 0.548
relative viability ([3]; first compound 0.3162 µM): 0.566
relative viability ([3]; first compound 1 µM): 0.462
relative viability ([4]; first compound 0.1 µM): 0.52
relative viability ([4]; first compound 0.3162 µM): 0.447
relative viability ([4]; first compound 1 µM): 0.333
relative viability ([5]; first compound 0.1 µM): 0.814
relative viability ([5]; first compound 0.3162 µM): 0.75
relative viability ([5]; first compound 1 µM): 0.771
relative viability ([6]; first compound 0.1 µM): 0.861
relative viability ([6]; first compound 0.3162 µM): 0.772
relative viability ([6]; first compound 1 µM): 0.643

NCI-H358
relative viability ([1]; first compound 0.08 µM): 0.34
relative viability ([1]; first compound 0.8 µM): 0.344
relative viability ([1]; first compound 2.53 µM): 0.364
relative viability ([1]; first compound 8 µM): 0.463
relative viability ([2]; first compound 0.08 µM): 0.499
relative viability ([2]; first compound 0.8 µM): 0.484
relative viability ([2]; first compound 2.53 µM): 0.409
relative viability ([2]; first compound 8 µM): 0.409
relative viability ([3]; first compound 0.1 µM): 0.594
relative viability ([3]; first compound 0.3162 µM): 0.892
relative viability ([3]; first compound 1 µM): 0.47
relative viability ([4]; first compound 0.1 µM): 0.0945
relative viability ([4]; first compound 0.3162 µM): 0.0925
relative viability ([4]; first compound 1 µM): 0.0987
relative viability ([5]; first compound 0.1 µM): 0.773
relative viability ([5]; first compound 0.3162 µM): 0.768
relative viability ([5]; first compound 1 µM): 0.466
relative viability ([6]; first compound 0.1 µM): 0.62
relative viability ([6]; first compound 0.3162 µM): 0.536
relative viability ([6]; first compound 1 µM): 0.44
